What was measured:
P-glycoprotein (P-gp) [1] = molecular target: T1, P-glycoprotein (P-gp) (Homo sapiens, UniProt P08183)
Method: Rho123 (10 μM) was added to the culture solution containing the culture embedded in Matrigel after the culturing prepared in Experimental Example 1, and the incorporation of the Rho123 into the inner cavity of the culture was carried out at 37° C. for 30 min in the presence of 5% by volume of CO2.
The polymerized Matrigel was degraded by pipetting and enzymatic treatment (Corning (registered trade name) Cell Recovery Solution) in order to measure the amount of the incorporated Rho123.

P-glycoprotein (P-gp) [2] = molecular target: T1, P-glycoprotein (P-gp); experiment: Rho123 excretion of present evaluation model (sac-like material, suspension culture), fluorescence microscopy; format: in vitro ADME; set-up: In the obtained culture, an inner cavity due to the membrane of the human hepatocyte-like cell was formed; host or cells: human hepatocyte-like cells (organoid or sac-like material) cultured from human primary hepatocytes; conditions: Rho123 10 μM, 37°C, 30 min, 5% CO2; sac-like material of human hepatocyte-like cells, 2% by volume Matrigel suspension culture; FIG. 2A/2B
Method: (§1) The culture of human liver cells after the subculturing in Experimental Example 1, the culture medium in Table 1, and 2% by volume of Matrigel with respect to the culture medium were added to a 6-well culture plate (manufactured by Sumitomo Bakelite Co., Ltd., MS-8006R), followed by the suspension culture at 37° ° C. for 3 days in the presence of 5% by volume of CO2 to form a sac-like material.
(§2) In Experimental Example 2, Rho123 (10 μM), which is a substrate for P-glycoprotein (P-gp), was added to the culture solution after the suspension culture. The incorporation of the Rho123 into the inner cavity of the present evaluation model was carried out at 37 °C for 30 min in the presence of 5% by volume of CO2. A culture solution containing the present evaluation model was placed in a low-adsorption 15 mL tube by pipetting, followed by centrifugation.

P-glycoprotein (P-gp) [3] = molecular target: T1, P-glycoprotein (P-gp); experiment: Quantification of Rho123 incorporated into inner cavity of present evaluation model by LC/MS; format: in vitro ADME; set-up: In the obtained culture, an inner cavity due to the membrane of the human hepatocyte-like cell was formed; host or cells: human hepatocyte-like cells (organoid or sac-like material) cultured from human primary hepatocytes; conditions: Rho123 10 μM in culture solution, 37°C, 30 min
Method: as §1, §2
The present evaluation model of Experimental Example 3, into which Rho123 had been incorporated, was mixed with methanol to kill the human hepatocyte-like cells. After mixing, centrifugation was carried out to extract the supernatant. The supernatant was subjected to analysis by a liquid chromatography-mass spectrometer (LC/MS) (manufactured by SHIMADZU CORPORATION, LCMSTM-8040), and from the concentration and amount of the Rho123 incorporated into the inner cavity and the concentration of the Rho123 in the culture solution, the proportion of the present evaluation model transported into the inner cavity was calculated.
• Column: Xbridge C18 3.5 μm, 2.1 mm×50 mm • Column temperature: 40° ° C. • Internal standard substance: Tolbutamine • Elution solvent: A solution (a 0.1% by mass formic acid solution), B solution (acetonitrile) • Gradient conditions: see Table 2 • Runtime: 7 minutes • Flow rate: 0.4 mL/min • Injection volume: 3 μL
• Mode: Positive (*the standard substance is in a negative mode)

MRP2 = molecular target: T2, MRP2 (Homo sapiens, UniProt Q92887); experiment: CDFDA excretion of present evaluation model, microscopy; format: in vitro ADME; conditions: CDFDA 2 μM, 5 µM, or 10 µM, 37°C, 30 min, 5% CO2; FIG. 5
T2 construct: host or cells: human hepatocyte-like cells (sac-like material) cultured from human primary hepatocytes
T2 sequence (Q92887 whole entry): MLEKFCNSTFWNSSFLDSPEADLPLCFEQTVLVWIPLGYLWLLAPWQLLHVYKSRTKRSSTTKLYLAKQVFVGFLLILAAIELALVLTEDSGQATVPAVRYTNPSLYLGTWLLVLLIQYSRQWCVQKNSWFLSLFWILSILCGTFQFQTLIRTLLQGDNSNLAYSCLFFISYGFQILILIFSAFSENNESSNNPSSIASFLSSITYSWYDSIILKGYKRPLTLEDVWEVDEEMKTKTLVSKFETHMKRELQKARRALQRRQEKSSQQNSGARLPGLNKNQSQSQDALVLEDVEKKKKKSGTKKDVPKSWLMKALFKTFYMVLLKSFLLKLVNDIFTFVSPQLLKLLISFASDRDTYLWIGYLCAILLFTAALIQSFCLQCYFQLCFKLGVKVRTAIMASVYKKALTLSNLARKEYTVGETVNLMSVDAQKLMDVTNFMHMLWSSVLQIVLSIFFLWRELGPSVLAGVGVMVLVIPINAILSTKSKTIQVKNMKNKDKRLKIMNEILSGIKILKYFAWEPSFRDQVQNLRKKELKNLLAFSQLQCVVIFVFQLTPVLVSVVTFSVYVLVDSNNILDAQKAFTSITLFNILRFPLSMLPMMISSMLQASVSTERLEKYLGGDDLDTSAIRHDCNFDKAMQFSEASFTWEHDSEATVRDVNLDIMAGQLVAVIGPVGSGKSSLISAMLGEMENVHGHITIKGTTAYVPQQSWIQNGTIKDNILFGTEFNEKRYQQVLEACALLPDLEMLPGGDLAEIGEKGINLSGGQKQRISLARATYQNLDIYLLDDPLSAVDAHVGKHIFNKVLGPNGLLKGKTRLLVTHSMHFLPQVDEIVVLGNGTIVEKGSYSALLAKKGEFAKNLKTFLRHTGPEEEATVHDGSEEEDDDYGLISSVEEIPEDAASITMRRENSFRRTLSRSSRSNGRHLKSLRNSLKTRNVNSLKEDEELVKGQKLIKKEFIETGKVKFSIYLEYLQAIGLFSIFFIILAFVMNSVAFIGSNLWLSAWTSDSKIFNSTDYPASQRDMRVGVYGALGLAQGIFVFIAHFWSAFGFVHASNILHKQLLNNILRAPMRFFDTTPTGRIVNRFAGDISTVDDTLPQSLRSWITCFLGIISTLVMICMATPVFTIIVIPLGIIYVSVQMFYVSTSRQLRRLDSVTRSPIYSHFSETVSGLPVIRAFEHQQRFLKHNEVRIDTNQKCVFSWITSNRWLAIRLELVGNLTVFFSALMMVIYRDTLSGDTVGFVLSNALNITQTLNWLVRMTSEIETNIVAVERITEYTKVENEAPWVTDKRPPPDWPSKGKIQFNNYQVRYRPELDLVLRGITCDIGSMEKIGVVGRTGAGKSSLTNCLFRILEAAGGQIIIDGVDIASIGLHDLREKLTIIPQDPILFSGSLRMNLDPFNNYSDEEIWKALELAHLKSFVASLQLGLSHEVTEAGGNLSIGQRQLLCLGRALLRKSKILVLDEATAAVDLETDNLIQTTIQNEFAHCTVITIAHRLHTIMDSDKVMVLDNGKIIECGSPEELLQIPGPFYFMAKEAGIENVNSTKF
Method: as §1
as §2, with “2 μM, 5 µM, or 10 µM of carboxydichlorofluorescein diacetate (CDFDA),” for “Rho123 (10 μM),”, “of MRP2,” for “for P-glycoprotein (P-gp),”, “CDFDA” for “Rho123”, “ml” for “mL”

T1 sequence (P08183 whole entry): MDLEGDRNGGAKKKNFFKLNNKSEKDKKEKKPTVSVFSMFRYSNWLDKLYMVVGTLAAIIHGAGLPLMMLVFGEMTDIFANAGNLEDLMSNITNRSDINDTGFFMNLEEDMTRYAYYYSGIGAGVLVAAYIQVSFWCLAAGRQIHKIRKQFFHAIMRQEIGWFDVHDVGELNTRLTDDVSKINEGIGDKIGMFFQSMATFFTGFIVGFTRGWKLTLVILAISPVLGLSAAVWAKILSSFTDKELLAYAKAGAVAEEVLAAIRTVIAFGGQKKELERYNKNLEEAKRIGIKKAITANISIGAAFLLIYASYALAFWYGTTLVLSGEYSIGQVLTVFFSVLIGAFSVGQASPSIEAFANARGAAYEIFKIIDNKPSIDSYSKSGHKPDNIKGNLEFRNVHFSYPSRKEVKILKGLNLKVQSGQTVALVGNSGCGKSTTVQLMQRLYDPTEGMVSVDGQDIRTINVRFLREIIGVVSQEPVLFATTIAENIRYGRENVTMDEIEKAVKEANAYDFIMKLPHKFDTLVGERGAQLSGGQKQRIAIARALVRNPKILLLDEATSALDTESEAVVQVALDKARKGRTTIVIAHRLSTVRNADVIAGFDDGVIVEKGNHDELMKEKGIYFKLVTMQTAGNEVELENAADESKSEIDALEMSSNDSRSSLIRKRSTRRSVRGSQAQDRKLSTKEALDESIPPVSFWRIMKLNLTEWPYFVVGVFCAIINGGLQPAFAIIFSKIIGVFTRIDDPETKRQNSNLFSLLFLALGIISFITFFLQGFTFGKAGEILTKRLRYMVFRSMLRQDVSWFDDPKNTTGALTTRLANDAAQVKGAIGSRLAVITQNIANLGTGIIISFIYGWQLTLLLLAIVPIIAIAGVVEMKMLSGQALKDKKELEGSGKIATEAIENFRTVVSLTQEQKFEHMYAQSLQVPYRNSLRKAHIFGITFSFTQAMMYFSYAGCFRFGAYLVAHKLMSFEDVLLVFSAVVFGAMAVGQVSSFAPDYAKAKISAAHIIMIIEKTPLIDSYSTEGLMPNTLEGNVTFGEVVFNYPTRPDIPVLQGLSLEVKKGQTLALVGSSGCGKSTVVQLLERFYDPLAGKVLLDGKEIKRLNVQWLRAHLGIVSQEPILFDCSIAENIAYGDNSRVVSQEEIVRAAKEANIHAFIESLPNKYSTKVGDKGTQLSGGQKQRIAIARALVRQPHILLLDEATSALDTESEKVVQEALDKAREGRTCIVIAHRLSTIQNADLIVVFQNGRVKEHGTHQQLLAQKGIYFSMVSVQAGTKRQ

Proportion transported into present evaluation model (P-glycoprotein (P-gp) [3]; calculated from concentration and amount in inner cavity and concentration in culture solution) | Amount of Rho123 in present evaluation model (P-glycoprotein (P-gp) [3]; methanol extraction, LC/MS) | Concentration of Rho123 in present evaluation model (P-glycoprotein (P-gp) [3]; methanol extraction, LC/MS) | Compound | Incorporation into the inner cavity of the culture (microscopy) (P-glycoprotein (P-gp) [1]) | Excretion into the inner cavity of the present evaluation model (microscopy) (P-glycoprotein (P-gp) [2]) | Excretion into the inner cavity of the present evaluation model (microscopy) (MRP2)
1.23% | 0.123 nmol | 615.4 nM | COC(=O)c1ccccc1-c1c2ccc(=N)cc-2oc2cc(N)ccc12.Cl [Rho123] | incorporation of Rho123 into the inner cavity of the culture was confirmed | excreted into the inner cavity of the present evaluation model | 
 |  |  | carboxydichlorofluorescein diacetate [CDFDA] |  |  | excreted into the inner cavity of the present evaluation model
